Our source for the IC50 values is patent US6569894B1, “Arylalkylbenzofuran derivatives as melatonergic agents” (Bristol-Myers Squibb Company, priority 2001, dated 2003).

Bounds are passed on as bounds.

The target of one assay is T1, ML1a receptor (Homo sapiens, UniProt P48039).
T1 construct: expressed in transfected cells; pcDNA3)
Put plainly: Melatonergic receptor binding activity, 2-[125I]-iodomelatonin, ML1a. As to conditions: membrane homogenates of NIH-3T3 cells, 37° C. for 1 hour. The protocol:
(§1) Melatonergic Receptor Binding Activity
(§2) (a) TME=50 mM Tris buffer containing 12.5 mM MgCl2, and 2 mM EDTA, pH 7.4 at 37° C., with concentrated HCl.
(§3) (b) Wash buffer: 20 mM Tris base containing 2 mM MgCl2, pH 7.4 at room temperature.
(§4) (c) 10^−4 M melatonin (10^−5 M final concentration).
(§5) (d) 2-[^125I]-iodomelatonin, […] final concentration.
2. Membrane Homogenates: The melatonin ML1α receptor cDNA was subcloned into pcDNA3 and introduced into NIH-3T3 cells using Lipofectamine. Transformed NIH-3T3 cells resistant to geneticin (G-418) were isolated, and single colonies expressing high levels of 2-[^125I]-iodomelatonin binding were isolated. Cells are maintained in DMEM supplemented with 10% calf serum and G-418 (0.5 g/liter). Cells are grown to confluency in T-175 flasks, scraped using Hank's balanced salt solution, and frozen at −80° C. For preparing membrane homogenates, pellets are thawed on ice, and re-suspended in TME buffer in the presence of 10 μg/ml aprotinin and leupeptin, and 100 μM phenylmethylsulfonylfluoride. The cells were then homogenized using a dounce homogenizer, and centrifuged. The resulting pellet was re-suspended with dounce homogenizer in TME (supplemented with the above protease inhibitors) and frozen. On the day of assay, a small aliquot was thawed on ice and re-suspended in the ice cold TME (1:50-1:100 v/v) and held on ice until assayed.
(§6) 3. Incubation: 37° C. for 1 hour. Reaction is terminated by filtration. Filters were washed 3 times.
(§7) The compounds of the present invention have affinity for receptors of the endogenous pineal hormone, melatonin, as determined in a receptor binding assays described above in Tables I to V for the ML1a and ML1b (human) receptors. Melatonin is involved in the regulation of a variety of biological rhythms and exerts its biological effects via interaction with specific receptors. There is evidence that administration of melatonin agonists are of clinical utility in the treatment of various conditions regulated by melatonin activity. Such conditions include depression, jet-lag, work-shift syndrome, sleep disorders, glaucoma, some disorders associated with reproduction, cancer benign prostatic hyperplasia, immune disorders and neuroendocrine disorders.

For a further assay, the target named is T2, ML1b receptor (Homo sapiens, UniProt P49286).
T2 construct: expressed in transfected cells
T2 sequence (P49286 1-362): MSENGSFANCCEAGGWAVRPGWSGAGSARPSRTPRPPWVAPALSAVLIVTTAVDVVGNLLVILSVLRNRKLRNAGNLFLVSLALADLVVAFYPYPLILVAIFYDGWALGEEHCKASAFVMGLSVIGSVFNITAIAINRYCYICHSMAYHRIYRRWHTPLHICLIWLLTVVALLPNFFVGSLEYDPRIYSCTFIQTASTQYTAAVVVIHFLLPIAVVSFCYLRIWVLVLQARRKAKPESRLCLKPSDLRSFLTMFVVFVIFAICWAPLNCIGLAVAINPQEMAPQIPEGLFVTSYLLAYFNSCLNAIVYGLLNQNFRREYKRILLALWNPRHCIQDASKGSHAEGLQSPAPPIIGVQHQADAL
Briefly: Melatonergic receptor binding activity, 2-[125I]-iodomelatonin, ML1b. The following applies: 37° C. for 1 hour. The protocol:
as §1, §2, §3, §4, §5, §6, §7

T1 sequence (P48039 whole entry): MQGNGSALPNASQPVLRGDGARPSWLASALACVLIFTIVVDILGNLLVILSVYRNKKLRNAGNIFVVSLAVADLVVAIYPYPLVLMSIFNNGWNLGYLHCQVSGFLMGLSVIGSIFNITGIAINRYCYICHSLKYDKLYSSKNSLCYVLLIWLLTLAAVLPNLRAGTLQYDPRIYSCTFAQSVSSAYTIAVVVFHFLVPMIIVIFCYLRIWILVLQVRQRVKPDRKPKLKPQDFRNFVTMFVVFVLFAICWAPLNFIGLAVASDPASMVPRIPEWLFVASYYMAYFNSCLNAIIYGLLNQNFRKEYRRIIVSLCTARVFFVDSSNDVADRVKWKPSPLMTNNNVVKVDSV

For the compound “N-3-(2-(2-Phenyleth-1-yl)benzofuran-3-yl)prop-1-yl Acetamide [Example 23]”, the IC50 on ML1a receptor (Table III) and on ML1b receptor (Table III) was 10 to 250 nM in each case.

`CC(C)C(=O)NC[C@H]1C[C@@H]1c1cccc2oc(CCCCc3ccccc3)cc12` (racemic) [Example 33, N-({(1R,2R)-2-[2-(4-Phenylbutyl)benzo[b]furan-4-yl]-cyclopropyl}methyl)-2-methylpropanamide]: the IC50 at ML1a receptor (Table IV) and at ML1b receptor (Table IV) was 10 to 250 nM each time.

With `CCC(=O)NC[C@@H]1C[C@H]1c1cccc2oc(CCCCc3ccc(F)cc3)cc12` (stereo in doubt) [Example 37, N-[((1R,2R)-2-{2-[4-(4-Fluorophenyl)butyl]benzo[b]furan-4-yl}-cyclopropyl)methyl]propanamide], the IC50 – broadly, the midpoint of a concentration-inhibition curve – was below 10 nM at ML1a receptor (Table IV) and 10 to 250 nM at ML1b receptor (Table IV).

`CC(C)C(=O)NC[C@@H]1C[C@H]1c1cccc2c1C[C@@H](CCCCc1ccccc1)O2` [Example 45, N-({2-[(2R)-2-(4-Phenylbutyl)(2,3-dihydrobenzo[b]furan-4-yl)]-(1R,2R)cyclopropyl}methyl)-2-methylpropanamide]: the IC50 at ML1a receptor (Table V) and on ML1b receptor (Table V) was 10 to 250 nM throughout.

With `CCC(=O)NC[C@@H]1C[C@H]1c1cccc2c1C[C@@H](CCCCc1ccccc1)O2` [Example 43, N-({2-[(2R)-2-(4-Phenylbutyl)(2,3-dihydrobenzo[b]furan-4-yl)]-(1R,2R)cyclopropyl}methyl)propanamide], the concentration for half-maximal inhibition (IC50) on ML1a receptor (Table V) and on ML1b receptor (Table V) was below 10 nM throughout.

Consider `CCC(=O)NCCCc1cccc2c1C[C@H](CCCCc1ccccc1)O2` (stereo in doubt) [Example 2, N-[3-[2-(4-Phenylbutyl)-2,3-dihydrobenzofuran-4-yl]propyl]propionamide], for which the IC50 at ML1a receptor (Table I) is below 10 nM; at ML1b receptor (Table I), 10 to 250 nM.

`CCNC(=O)NCCCc1cccc2oc(CCCCc3ccc(C(F)(F)F)cc3)cc12` [Example 14, N-[3-[2-[4-(4-Trifluoromethylphenyl)butyl]benzofuran-4-yl]propyl]-N′-ethyl Urea]: the IC50 was 10 to 250 nM at ML1a receptor (Table III) and above 250 nM at ML1b receptor (Table III).

“N-3-(2-(3-Phenylprop-1-yl)benzofuran-3-yl)prop-1-yl Acetamide [Example 19]”: the IC50 on ML1a receptor (Table III) is below 10 nM; on ML1b receptor (Table III), 10 to 250 nM.

Take `CCCC(=O)NCCCc1cccc2oc(CCCCc3ccccc3)cc12` [Example 11, N-[3-[2-(4-Phenylbutyl)benzofuran-4-yl]propyl]butyramide]: the IC50 on ML1a receptor (Table II) and at ML1b receptor (Table II) was 10 to 250 nM throughout.

For `CC(C)C(=O)NC[C@@H]1C[C@H]1c1cccc2oc(CCCCc3ccc(F)cc3)cc12` (stereo in doubt) [Example 39, N-[((1R,2R)-2-{2-[4-(4-Fluorophenyl)butyl]benzo[b]furan-4-yl}-cyclopropyl)methyl]-2-methylpropanamide], the IC50 on ML1a receptor (Table IV) and on ML1b receptor (Table IV) was 10 to 250 nM throughout.

`O=C(NC[C@H]1C[C@@H]1c1cccc2oc(CCCCc3ccccc3)cc12)C1CC1` (racemic) [Example 34, N-({(1R,2R)-2-[2-(4-Phenylbutyl)benzo[b]furan-4-yl]-cyclopropyl}methyl)cyclopropylcarboxamide]: the IC50 at ML1a receptor (Table IV) and on ML1b receptor (Table IV) was 10 to 250 nM throughout.

In the case of `CC(=O)NCCCc1cccc2oc(CCCCc3ccccc3)cc12` [Example 9, N-[3-[2-(4-Phenylbutyl)benzofuran-4-yl]propyl]acetamide], the IC50 on ML1a receptor (Table II) and at ML1b receptor (Table II) was 10 to 250 nM throughout.

`CC(=O)NC[C@H]1C[C@@H]1c1cccc2oc(CCCCc3ccccc3)cc12` (single isomer, unassigned) [Example 29]: the IC50 at ML1a receptor (Table IV) is below 10 nM; on ML1b receptor (Table IV), 10 to 250 nM.

As for `CC(=O)NC[C@H]1C[C@@H]1c1cccc2oc(CCCCc3ccccc3)cc12` (single isomer, unassigned) [Example 30], the IC50 on ML1a receptor (Table IV) was 10 to 250 nM; on ML1b receptor (Table IV), above 250 nM.

For the compound `O=C(NC[C@@H]1C[C@H]1c1cccc2c1C[C@@H](CCCCc1ccccc1)O2)C1CC1` [Example 46, N-({2-[(2R)-2-(4-Phenylbutyl)(2,3-dihydrobenzo[b]furan-4-yl)]-(1R,2R)cyclopropyl}methyl)cyclopropylcarboxamide], the IC50 on ML1a receptor (Table V) was below 10 nM; on ML1b receptor (Table V), 10 to 250 nM.

Consider `CCNC(=O)NC[C@H]1C[C@@H]1c1cccc2oc(CCCCc3ccc(F)cc3)cc12` [Example 41, N-[((1R,2R)-2-{2-[4-(4-Fluorophenyl)butyl]benzo[b]furan-4-yl-}-cyclopropyl)methyl](ethylamino)carboxamide], for which the results for the IC50 at ML1a receptor (Table IV) and at ML1b receptor (Table IV) were 10 to 250 nM and above 250 nM, respectively.

As to `O=C(NC[C@@H]1C[C@H]1c1cccc2oc(CCCCc3ccc(F)cc3)cc12)C1CC1` (stereo in doubt) [Example 40, N-[((1R,2R)-2-{2-[4-(4-Fluorophenyl)butyl]benzo[b]furan-4-yl}-cyclopropyl)methyl]cyclopropylcarboxamide], the IC50 at ML1a receptor (Table IV) and at ML1b receptor (Table IV) was 10 to 250 nM each time.

Take `CCC(=O)NC[C@H]1C[C@@H]1c1cccc2oc(CCCCc3ccccc3)cc12` (racemic) [Example 31, N-({(1R,2R)-2-[2-(4-Phenylbutyl)benzo[b]furan-4-yl]-cyclopropyl}methyl)propanamide]: the IC50 on ML1a receptor (Table IV) and on ML1b receptor (Table IV) was below 10 nM each time.

In the case of “N-3-(2-(3-Phenylprop-1-yl)benzofuran-3-yl)prop-1-yl Propanamide [Example 20]”, the IC50 at ML1a receptor (Table III) was 10 to 250 nM; on ML1b receptor (Table III), above 250 nM.

In the case of “N-({2-[(2R)-5,7-Dichloro-2-(4-phenylbutyl)(2,3-dihydrobenzo[b]furan-4-yl)](1R,2R)cyclopropyl}methyl)butanamide [Example 49]”, the values for the IC50 at ML1a receptor (Table V) and at ML1b receptor (Table V) were above 250 nM and 10 to 250 nM, respectively.

For the compound `CCCC(=O)NCCCc1cccc2c1C[C@H](CCCCc1ccccc1)O2` [Example 3, N-[3-[2-(4-Phenylbutyl)-2,3-dihydrobenzofuran-4-yl]propyl]butyramide], the values for the IC50 at ML1a receptor (Table I) and on ML1b receptor (Table I) were below 10 nM and 10 to 250 nM, respectively.

On to `CCC(=O)NCCCc1cccc2oc(CCCCc3ccc(C(F)(F)F)cc3)cc12` [Example 16, N-[3-[2-[4-(4-Trifluoromethylphenyl)butyl]benzofuran-4-yl]propyl]-propionamide], for which the IC50 at ML1a receptor (Table III) and at ML1b receptor (Table III) was 10 to 250 nM in each case.

`CC(=O)NC[C@H]1C[C@@H]1c1cccc2oc(CCCCc3ccccc3)cc12` (racemic) [Example 28, N-({(1R,2R)-2-[2-(4-Phenylbutyl)benzo[b]furan-4-yl]-cyclopropyl}methyl)acetamide]: the IC50 at ML1a receptor (Table IV) is below 10 nM; on ML1b receptor (Table IV), 10 to 250 nM.

Consider `CCC(=O)NCCCc1cccc2oc(CCCCc3ccccc3)cc12` [Example 10, N-[3-[2-(4-Phenylbutyl)benzofuran-4-yl]propyl]propionamide], for which the IC50 at ML1a receptor (Table II) is below 10 nM; on ML1b receptor (Table II) it was 10 to 250 nM.

Turning to `CC(C)C(=O)NCCCc1cccc2oc(CCCCc3ccccc3)cc12` [Example 12, N-[3-[2-(4-Phenylbutyl)benzofuran-4-yl]propyl]-2-methyl Propionamide], the IC50 is below 10 nM on ML1a receptor (Table II) and 10 to 250 nM on ML1b receptor (Table II).

For “N-3-(2-(2-Phenyleth-1-yl)benzofuran-3-yl)prop-1-yl Butyramide [Example 25]”, the IC50 on ML1a receptor (Table III) and on ML1b receptor (Table III) was 10 to 250 nM throughout.

As to “N-3-(2-(2-Phenyleth-1-yl)benzofuran-3-yl)prop-1-yl Propanamide [Example 24]”, the IC50 on ML1a receptor (Table III) and on ML1b receptor (Table III) was 10 to 250 nM in each case.

Consider “N-3-(2-(3-Phenylprop-1-yl)benzofuran-3-yl)prop-1-yl Butyramide [Example 21]”, for which the figures for the IC50 at ML1a receptor (Table III) and at ML1b receptor (Table III) were 10 to 250 nM and above 250 nM, respectively.
